# Measured values as given in patent US20220282217A1, “COMPOSITIONS AND METHODS FOR PREPARING T CELL COMPOSITIONS AND USES THEREOF” (priority 2019, published 2022).
# Like-named read-outs stand apart in the source and are kept apart here. Where a SMILES comes first, the peptide text is derived from it.
# What was measured:
# [1] = target: HLA-A02.01 (Homo sapiens, UniProt P04439, D140Y/D185E/D98H/E176V/E277Q/G131W/G231S/I119V/I121R/I166T/I218V/L300P/L318F/N151K/N90K/P208A/P217A/Q86G/Q94H/R138H/R169H/T345S); test: Class I MHC peptide binding affinity (displacement of radiolabeled reference peptide); conditions: allele A02.01, (nM))
# Method in brief: (§1)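 Read-out: radioactivity of reference peptide retained on MHCI, separated from free label by gel-filtration size exclusion. Competing peptides are titrated against the preformed complexes and incubated two days beforehand.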
# [2] = tested on: 293T cells transduced with GATA3 neoORF, expressing the HLA of interest; test: Presentation of GATA3 neoantigens: HLA-eluted peptides by targeted MS/MS (PRM) (Table 14); format: cell-based, human
# Description: To assess whether antigens could be processed and presented from the larger polypeptide context, peptides eluted from HLA molecules isolated from cells expressing the genes of interest were analyzed by tandem mass spectrometry (MS/MS).
# Between 50 and 700 million of the transduced cells expressing peptides encoded by the GATA3 neoORF sequence were cultured and peptides were eluted from HLA-peptide complexes using an acid wash. Eluted peptides were then analyzed by targeted MS/MS using PRM. Spectral comparison between peptides derived from GATA3 neoORF and corresponding synthetic peptides were performed to confirm each detection.
# [3] = target: T1, HLA-A02.01 (Homo sapiens, UniProt P04439, D140Y/D185E/D98H/E176V/E277Q/G131W/G231S/I119V/I121R/I166T/I218V/N151K/N90K/P208A/P217A/Q86G/Q94H/R138H/R169H); test: Class I MHC peptide binding stability (pMHC-I dissociation, 125I-labeled light chain); conditions: allele A02.01
# T1 construct: made in house; host or cells: E. coli
# [4] = target: T2, HLA-B08.01 (Homo sapiens, UniProt P01889, A93T/A95T/D138N/E176V/E187T/K202T/Q94N/R180D/S35A/V36M/Y33D/Y91F); test: as above; conditions: Allele B08.01
# [5] = target: T2, HLA-B08.01; test: Class I MHC peptide binding affinity (displacement of radiolabeled reference peptide)
# Method in brief: as §1
# [6] = target: T3, HLA-A03.01 (Homo sapiens, UniProt P04439); test: as above; conditions: allele A03.01, (nM))
# [7] = target: T3, HLA-A03.01; test: Class I MHC peptide binding stability (pMHC-I dissociation, 125I-labeled light chain); design: made in house; host or cells: E. coli; conditions: allele A03.01
# [8] = target: HLA-A24.02; test: Class I MHC peptide binding affinity (displacement of radiolabeled reference peptide); design: species or system human; conditions: allele A24.02; read-out: Observed Affinity (IC50; (nM))
# [9] = tested on: HLA-A24.02; test: Class I MHC peptide binding stability (pMHC-I dissociation, 125I-labeled light chain); design: species or system human; conditions: allele A24.02
# [10] = target: HLA-A11.01 (Homo sapiens, UniProt P04439, A114D/D185E/E176A/F33Y/L180Q/S129P/T187R); test: Class I MHC peptide binding affinity (displacement of radiolabeled reference peptide)
# [11] = target: HLA-B07.02 (Homo sapiens, UniProt P01889); test: Class I MHC peptide binding stability (pMHC-I dissociation, 125I-labeled light chain); design: made in house; host or cells: E. coli; conditions: Allele B07.02
# [12] = read-out: Observed Affinity (IC50
# [13] = GATA3 neoORF transduced 293T cells expressing HLA-A*02:01 protein
# [14] = allele A11.01, read-out: Observed Affinity (IC50, (nM))
compound,measurement,setting,value
CSCC[C@H](N)C(=O)N[C@@H](CC(C)C)C(=O)N[C@H](C(=O)NCC(=O)N1CCC[C@H]1C(=O)N1CCC[C@H]1C(=O)N[C@@H](C)C(=O)N[C@@H](CCCNC(=N)N)C(=O)N[C@H](C(=O)O)C(C)C)[C@@H](C)O (H-MLTGPPARV-OH; N-terminus and C-terminus assumed),IC50,[1]; [12],10.6 nM
same,detected by mass spectrometry (peptide eluted from HLA-peptide complexes),[2]; [13],detected
CC[C@H](C)[C@H](NC(=O)[C@H](CCCCN)NC(=O)[C@H](CO)NC(=O)[C@@H](N)CCC(=O)O)C(=O)N[C@@H](CCSC)C(=O)N[C@@H](Cc1ccccc1)C(=O)N[C@@H](C)C(=O)N[C@H](C(=O)N[C@@H](CC(C)C)C(=O)O)[C@@H](C)O,detected by mass spectrometry (peptide eluted from HLA-peptide complexes),[2]; GATA3 neoORF transduced 293T cells expressing HLA-B*08:01 protein,detected
CC[C@H](C)[C@H](NC(=O)[C@H](CCCCN)NC(=O)[C@H](CO)NC(=O)[C@H](CCC(=O)O)NC(=O)[C@H](C)NC(=O)[C@H](CCCCN)NC(=O)[C@H](CC(C)C)NC(=O)[C@H](Cc1ccccc1)NC(=O)[C@H](CCSC)NC(=O)[C@@H](N)Cc1ccc(O)cc1)C(=O)O,Stability (T1/2 (h)),[3],0.6 h
same,Stability (T1/2 (h)),[4],0.4 h
CC(C)C[C@H](NC(=O)[C@H](CC(=O)O)NC(=O)[C@H](CO)NC(=O)[C@H](CCC(N)=O)NC(=O)[C@H](CCC(N)=O)NC(=O)[C@H](CCC(N)=O)NC(=O)[C@H](CCC(N)=O)NC(=O)[C@H](CCC(N)=O)NC(=O)[C@@H](N)Cc1ccc(O)cc1)C(=O)O (H-YQQQQQSDL-OH; N-terminus and C-terminus assumed),IC50,[1]; Observed Affinity (IC50,799 nM
same,IC50,[5],18900 nM
same,Stability (T1/2 (h)),[3],0.4 h
CSCC[C@H](NC(=O)[C@@H](NC(=O)[C@H](Cc1ccc(O)cc1)NC(=O)[C@H](C)NC(=O)[C@H](CCSC)NC(=O)[C@@H](NC(=O)[C@@H](N)Cc1ccc(O)cc1)C(C)C)C(C)C)C(=O)N[C@@H](C)C(=O)NCC(=O)O,IC50,[1]; [12],11500 nM
same,Stability (T1/2 (h)),[3],2.5 h
same,Stability (T1/2 (h)),[4],1.2 h
CC(C)C[C@H](NC(=O)[C@@H]1CCCN1C(=O)[C@H](CS)NC(=O)[C@H](CC(C)C)NC(=O)[C@H](Cc1c[nH]cn1)NC(=O)[C@H](CC(N)=O)NC(=O)CNC(=O)[C@H](CC(C)C)NC(=O)[C@@H](N)CO)C(=O)O,Stability (T1/2 (h)),[3],3.5 h
same,Stability (T1/2 (h)),[4],0.5 h
CC(C)[C@H](NC(=O)[C@@H](N)CCCCN)C(=O)N[C@@H](CO)C(=O)N[C@@H](CCCNC(=N)N)C(=O)N[C@@H](CCC(=O)O)C(=O)N[C@@H](CC(N)=O)C(=O)N[C@H](C(=O)N[C@@H](CO)C(=O)N1CCC[C@H]1C(=O)N[C@@H](CCCCN)C(=O)O)[C@@H](C)O (H-KVSRENTSPK-OH; N-terminus and C-terminus assumed),IC50,[6]; [12],7 nM
same,Stability (T1/2 (h)),[7],13.5 h
CC(C)C[C@H](NC(=O)[C@H](CO)NC(=O)[C@H](CCCCN)NC(=O)[C@H](CC(C)C)NC(=O)[C@@H](NC(=O)[C@H](CO)NC(=O)[C@@H]1CCCN1C(=O)[C@H](CC(C)C)NC(=O)[C@@H](N)Cc1ccccc1)[C@@H](C)O)C(=O)O,IC50,[1]; Observed Affinity (IC50,21 nM
same,IC50,[5],1970 nM
same,IC50,[8],995 nM
same,Stability (T1/2 (h)),[9],1 h
CC[C@H](C)[C@H](NC(=O)[C@@H](N)CCCCN)C(=O)N[C@@H](CO)C(=O)N[C@@H](CC(N)=O)C(=O)N[C@@H](Cc1c[nH]c2ccccc12)C(=O)N[C@@H](CO)C(=O)N[C@@H](CC(C)C)C(=O)N[C@@H](CCCCN)C(=O)N[C@@H](CCCCN)C(=O)O (H-KISNWSLKK-OH; N-terminus and C-terminus assumed),IC50,[6]; [12],8.8 nM
same,IC50,[10]; [14],9.8 nM
CSCC[C@H](NC(=O)[C@H](C)N)C(=O)N[C@H](C(=O)N[C@H](C(=O)N[C@@H](CO)C(=O)N[C@@H](CO)C(=O)N[C@@H](CO)C(=O)N[C@@H](CCC(N)=O)C(=O)N[C@@H](CCCCN)C(=O)O)[C@@H](C)O)[C@@H](C)O (H-AMTTSSSQK-OH; N-terminus and C-terminus assumed),IC50,[6]; Observed Affinity (IC50,8.3 nM
same,IC50,[10],162 nM
CSCC[C@H](NC(=O)[C@@H](N)CO)C(=O)N[C@@H](CC(C)C)C(=O)N[C@H](C(=O)NCC(=O)N1CCC[C@H]1C(=O)N1CCC[C@H]1C(=O)N[C@@H](C)C(=O)N[C@@H](CCCNC(=N)N)C(=O)N[C@H](C(=O)O)C(C)C)[C@@H](C)O,Stability (T1/2 (h)),[3],21.7 h
same,detected by mass spectrometry (peptide eluted from HLA-peptide complexes),[2]; [13],detected
CC(C)C[C@H](NC(=O)[C@H](C)NC(=O)[C@H](CC(C)C)NC(=O)[C@H](Cc1c[nH]cn1)NC(=O)[C@@H]1CCCN1C(=O)[C@H](CCC(=O)O)NC(=O)[C@@H]1CCCN1C(=O)[C@H](CC(C)C)NC(=O)[C@@H](N)C(C)C)C(=O)O [VLPEPHLAL] (H-VLPEPHLAL-OH; N-terminus and C-terminus assumed),detected by mass spectrometry (peptide eluted from HLA-peptide complexes),[2]; [13],detected
CC[C@H](C)[C@H](NC(=O)[C@H](CC(N)=O)NC(=O)[C@H](CCSC)NC(=O)[C@H](Cc1c[nH]cn1)NC(=O)[C@H](CC(N)=O)NC(=O)CNC(=O)[C@H](CC(C)C)NC(=O)[C@@H](N)Cc1ccc(O)cc1)C(=O)N[C@@H](C)C(=O)O (H-YLGNHMNIA-OH; N-terminus and C-terminus assumed),IC50,[1]; Observed Affinity (IC50,117 nM
same,IC50,[5],872 nM
same,Stability (T1/2 (h)),[3],0.6 h
CSCC[C@H](NC(=O)[C@H](C)NC(=O)[C@@H](N)CO)C(=O)N[C@H](C(=O)N[C@H](C(=O)N[C@@H](CO)C(=O)N[C@@H](CO)C(=O)N[C@@H](CO)C(=O)N[C@@H](CCC(N)=O)C(=O)N[C@@H](CCCCN)C(=O)O)[C@@H](C)O)[C@@H](C)O (H-SAMTTSSSQK-OH; N-terminus and C-terminus assumed),IC50,[6]; [12],15.7 nM
same,IC50,[10]; [14],15.8 nM
CC(C)C[C@H](NC(=O)[C@H](CO)NC(=O)[C@H](CO)NC(=O)[C@H](CCCNC(=N)N)NC(=O)[C@H](CCC(N)=O)NC(=O)[C@H](CC(C)C)NC(=O)[C@@H](NC(=O)[C@H](C)NC(=O)[C@@H](N)Cc1ccccc1)[C@@H](C)O)C(=O)O,detected by mass spectrometry (peptide eluted from HLA-peptide complexes),[2]; GATA3 neoORF transduced 293T cells expressing HLA-C*03:03 protein,detected
CC(C)C[C@H](NC(=O)[C@H](Cc1ccccc1)NC(=O)[C@H](CO)NC(=O)[C@H](CC(C)C)NC(=O)[C@H](CS)NC(=O)[C@H](CO)NC(=O)[C@H](Cc1ccccc1)NC(=O)[C@H](CC(C)C)NC(=O)[C@@H](N)CCCCN)C(=O)O (H-KLFSCLSFL-OH; N-terminus and C-terminus assumed),IC50,[1]; [12],6 nM
same,IC50,[6]; [12],308 nM
same,Stability (T1/2 (h)),[3],14.3 h
same,Stability (T1/2 (h)),[7],0.8 h
CC(C)C[C@H](NC(=O)[C@H](C)NC(=O)[C@@H]1CCCN1C(=O)[C@@H](NC(=O)[C@H](CCCCN)NC(=O)[C@H](CCCCN)NC(=O)[C@H](CC(C)C)NC(=O)[C@@H](N)CO)C(C)C)C(=O)N[C@@H](CCCCN)C(=O)O (H-SLKKVPALK-OH; N-terminus and C-terminus assumed),IC50,[6]; [12],4.4 nM
same,IC50,[10]; [14],129 nM
CSCC[C@H](NC(=O)[C@H](Cc1c[nH]c2ccccc12)NC(=O)[C@H](Cc1c[nH]cn1)NC(=O)[C@H](CC(N)=O)NC(=O)[C@H](CCCNC(=N)N)NC(=O)[C@H](CCCNC(=N)N)NC(=O)[C@H](CCC(N)=O)NC(=O)[C@H](CO)NC(=O)[C@@H]1CCCN1C(=O)[C@@H](N)CC(C)C)C(=O)O,Stability (T1/2 (h)),[4],0.7 h
same,Stability (T1/2 (h)),[11],6.5 h
CC(C)C[C@H](N)C(=O)N[C@@H](C)C(=O)N[C@H](C(=O)N[C@@H](CCC(=O)O)C(=O)N[C@@H](CCCCN)C(=O)N[C@@H](CO)C(=O)N[C@@H](CCCNC(=N)N)C(=O)N[C@@H](Cc1c[nH]c2ccccc12)C(=O)N[C@@H](CO)C(=O)O)[C@@H](C)O (H-LATEKSRWS-OH; N-terminus and C-terminus assumed),IC50,[1]; Observed Affinity (IC50,61000 nM
same,IC50,[5],37000 nM
